In the data set the test system is mir-15a pri-miRNA. In words: mir-15a pri-miRNA expression in T47D cells (real-time RT-PCR). The format is cell-based, human. The note with it: real-time RT-PCR. The gist of the method: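 T47D cells transfected with 100 nM uniform 2′-MOE or gapmer oligomers. Pri-miRNA measured by real-time RT-PCR with a mir-15a-specific primer/probe set, normalized to 5.8S rRNA, expressed as percentage of untreated control RNA levels.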
Background: In qPCR the cycle at which signal appears reflects the starting amount.

This is an account of results in patent publication US8178506B2, “Oligomeric compounds and compositions for use in modulation of small non-coding RNAs” (Regulus Therapeutics Inc., priority 2003, dated 2012).

e = 2'-O-(2-methoxyethyl) (MOE); d = 2'-deoxy (DNA)

Turning to “129690 (antisense TTAGAATACGTCGCGTTATG; sugars from the 5' end e5 d10 e5, all phosphorothioate, methylation of C not given here) [compound 129690]”, the “mir-15a pri-miRNA expression % UTC” value turned out to be 121 % UTC.
